From patent publication US5798381A, “Biologically active bistramides, process for their production and their applications in therapy” (Institut Francais de Recherche Scientifique pour le …, priority 1993, dated 1998)

Test system: Plasmodium vinckei petteri
Test: Comparison of monodose and multidose therapeutic schema
Assay type: in vivo, Plasmodium vinckei petteri in SWISS female white mice
Experimental: The object is to monitor the parasitemia on a daily basis and to evaluate the inhibition of the parasitemia according to the therapeutic schema adopted for the treatment. The following are shown: the morphological modifications of the parasite by the parasitic formula, calculation of the parasitic formula is also carried out on smears and allows the evaluation of each stage:ring, young trophozoite, middle trophozoite, old trophozite for 100 red blood corpuscles.
a) after infestation, three batches of five mice are constituted, namely
a so-called monodose batch, for which a single injection of bistramide D (15 mg/kg) is given to the mouse on D0
a so-called multidose batch, where the injection of bistramide D is carried out by administering five doses on D0, D1, D2, D3, D4 respectively (total dose 15 mg/kg)
b) the preparation and reading of the smears is carried out every day for 21 days.
The percentage of parasitemia and the percentage inhibition of the development of the parasite is determined for each batch.

C/C=C/C(O)CC1CCC(C)C(CC(=O)NCC(O)C(C)C(=O)NCCCC2OC3(CCCC(CCC(C)/C=C(\C)C(C)O)O3)CCC2C)O1 (centres unmarked) [Bistramide D]
percentage inhibition of the development of the parasite (Monodose (15 mg/kg on D0), D3): 51.5% | parasitemia (Monodose (15 mg/kg on D0), D3, controls 0.33): 0.16% | percentage inhibition of the development of the parasite (Monodose (15 mg/kg on D0), D4): 33.3% | parasitemia (Monodose (15 mg/kg on D0), D4, controls 1.2): 0.80% | percentage inhibition of the development of the parasite (Monodose (15 mg/kg on D0), D5): 36.3% | parasitemia (Monodose (15 mg/kg on D0), D5, controls 5.5): 3.5% | percentage inhibition of the development of the parasite (Monodose (15 mg/kg on D0), D7): 0% | parasitemia (Monodose (15 mg/kg on D0), D7, controls 50): 64% | percentage inhibition of the development of the parasite (Monodose (15 mg/kg on D0), D8): 16.4% | parasitemia (Monodose (15 mg/kg on D0), D8, controls 67): 56% | percentage inhibition of the development of the parasite (Monodose (15 mg/kg on D0), D9): 12.5% | parasitemia (Monodose (15 mg/kg on D0), D9, controls 48): 42% | percentage inhibition of the development of the parasite (Monodose (15 mg/kg on D0), D10): 0% | parasitemia (Monodose (15 mg/kg on D0), D10, controls 1): 1% | parasitic formula, old trophozoite (OT) (Monodose, D5, control 3%): 9% | parasitic formula, middle trophozoite (MT) (Monodose, D5, control 7%): 14% | parasitic formula, young trophozoite (YT) (Monodose, D5, control 17.5%): 37% | parasitic formula, ring stage (R) (Monodose, D5, control 72.5%): 40% | parasitic formula, old trophozoite (OT) (Monodose, D7, control 10%): 6% | parasitic formula, middle trophozoite (MT) (Monodose, D7, control 15%): 14% | parasitic formula, young trophozoite (YT) (Monodose, D7, control 17%): 31% | parasitic formula, ring stage (R) (Monodose, D7, control 58%): 47% | parasitic formula, old trophozoite (OT) (Multidose, D5, control 3%): 7% | parasitic formula, middle trophozoite (MT) (Multidose, D5, control 7%): 40% | parasitic formula, young trophozoite (YT) (Multidose, D5, control 17.5%): 28% | parasitic formula, ring stage (R) (Multidose, D5, control 72.5%): 25% | parasitic formula, old trophozoite (OT) (Multidose, D7, control 10%): 93% | parasitic formula, middle trophozoite (MT) (Multidose, D7, control 15%): 0% | parasitic formula, young trophozoite (YT) (Multidose, D7, control 17%): 0% | parasitic formula, ring stage (R) (Multidose, D7, control 58%): 7% | percentage inhibition of the development of the parasite (Multidoses (D0-D4, total 15 mg/kg), D3): 63.6% | parasitemia (Multidoses (D0-D4, total 15 mg/kg), D3, controls 0.33): 0.12% | percentage inhibition of the development of the parasite (Multidoses (D0-D4, total 15 mg/kg), D4): 83.3% | parasitemia (Multidoses (D0-D4, total 15 mg/kg), D4, controls 1.2): 0.2% | percentage inhibition of the development of the parasite (Multidoses (D0-D4, total 15 mg/kg), D5): 70.9% | parasitemia (Multidoses (D0-D4, total 15 mg/kg), D5, controls 5.5): 1.6% | percentage inhibition of the development of the parasite (Multidoses (D0-D4, total 15 mg/kg), D7): 85.2% | parasitemia (Multidoses (D0-D4, total 15 mg/kg), D7, controls 50): 7.4% | percentage inhibition of the development of the parasite (Multidoses (D0-D4, total 15 mg/kg), D8): 0% | parasitemia (Multidoses (D0-D4, total 15 mg/kg), D8, controls 67): 74% | percentage inhibition of the development of the parasite (Multidoses (D0-D4, total 15 mg/kg), D9): 0% | parasitemia (Multidoses (D0-D4, total 15 mg/kg), D9, controls 48): 67% | percentage inhibition of the development of the parasite (Multidoses (D0-D4, total 15 mg/kg), D10): 0% | parasitemia (Multidoses (D0-D4, total 15 mg/kg), D10, controls 1): 30% | duration of the action (after last injection on D4, multidose batch): about 3 days | effect on Plasmodium from D8 (from D8): apparently being no longer effected | parasitemia of monodose batch versus control batch (monodose batch, D4): no difference is observed
